According to EP0321368A1, “Heterocyclic N-carbamoyl, N-thiocarbamoyl or N-amidino-aminomalonyl or -aminosuccinyl amide derivatives as sweetening agents” (NOFRE, Claude, priority 1987, dated 1989):
Converted amounts (≈) assume the structure as drawn.

What was measured:
[1] = tested on: goûteurs expérimentés; test: Sweetening power judged by a panel of eight experienced tasters against a sucrose reference solution; type: in vivo; details: for pouvoir édulcorant: weight basis
Text: Le pouvoir édulcorant des composés ainsi préparés a été évalué par un groupe de huit goûteurs expérimentés. Pour cela, les composés, en solution aqueuse à des concentrations variables, sont comparés, sur le plan gustatif, à une solution témoin de saccharose à 2 % et dans certains cas à 5 % et 10 ^o/o, c'est-à-dire à des concentrations correspondant à celles utilisées lors d'un usage courant. Le pouvoir sucrant des édulcorants de synthèse varie en effet suivant la concentration de la solution de saccharose utilisée comme référence. Le pouvoir édulcorant du composé testé par rapport au saccharose correspond alors au rapport pondéral qui existe entre le composé et le saccharose à égale intensité édulcorante, c'est-à-dire quand les saveurs sucrées de la solution du composé testé et de la solution témoin de saccharose sont considérées, par une majorité de goûteurs, avoir la meme intensité édulcorante.

[2] = Solubility in water at pH 3 (phosphate buffer) near 0 °C, saturated filtrate assayed by HPLC; type: physicochemical; details: for solubility at 1 h: aqueous buffer, pH 3 (phosphate buffer), 0° C, read-out: solubilité; for solubilité, fois plus élevée que celle de l'analogue carbocyclique 4-cyanophényle: ratio to exemple 4 of EP-B-0107597, pH 3, 0° C
Description: La solubilité a été mesurée de manière suivante. On met en suspension dans l'eau à pH 3 (tampon phosphate) et à température voisine de 0° C (ce qui correspond aux conditions de préparation et de stockage des boissons gazeuses) un excès du composé dont veut déterminer la solubilité. On soumet alors la suspension, toujours dans un bain de glace, à l'action des ultrasons pendant 60 min, puis on filtre (sur filtre Millipore Millex-HV 0,45 micromètre). Le composé, qui se trouve ainsi dissous à saturation dans le filtrat, est dosé par chromatographie liquide haute performance (HPLC) par rapport à une solution de référence de concentration connue.

[3] = compared with a 2 % sucrose solution

Row | SMILES | pouvoir édulcorant [1, 3] | further results
1 | COC(=O)[C@H](Cc1ccccc1)NC(=O)[C@H](CC(=O)O)NC(=O)Nc1cccnc1 [Exemple 1, N-(3-pyridylcarbamoyl)-L-aspartyl-L-phénylalanine méthyl ester] | ~100 fois celui du saccharose | 
2 | COC(=O)[C@H](Cc1ccccc1)NC(=O)[C@H](CC(=O)O)NC(=S)Nc1cccnc1 [Exemple 2, N-(3-pyridylthiocarbamoyl)-L-aspartyl-L-phénylalanine méthyl ester] | ~1 000 fois celui du saccharose | 
3 | COC(=O)[C@H](Cc1ccccc1)NC(=O)[C@H](CC(=O)O)NC(=O)Nc1ccc(Cl)nc1 [Exemple 3, N-(2-chloro-5-pyridylcarbamoyl)-L-aspartyl-L-phénylalanine méthyl ester] | ~500 fois celui du saccharose | 
4 | COC(=O)[C@H](Cc1ccccc1)NC(=O)[C@H](CC(=O)O)NC(=O)Nc1ccc(C#N)nc1 [Exemple 4, N-(2-cyano-5-pyridylcarbamoyl)-L-aspartyl-L-phénylalanine méthyl ester] | ~8 000 fois celui du saccharose | fois plus sucré que le saccharose ([1]; concentration of the sucrose reference not given): 8 000 fois; pouvoir édulcorant ([1]; compared with a 5 % sucrose solution): ~6 000 fois; pouvoir édulcorant ([1]; compared with a 10 % sucrose solution): ~4 000 fois; solubility at 1 h [2]: ~70 µg/mL (≈ 159 µM); solubilité, fois plus élevée que celle de l'analogue carbocyclique 4-cyanophényle [2]: ~3,5 fois
5 | N#Cc1ccc(NC(=O)N[C@@H](CC(=O)O)C(=O)NC(c2ccccc2)c2ccco2)cn1 (stereo partly drawn) [Exemple 5, acide N-(2-cyano-5-pyridylcarbamoyl)-L-aspartique N-[(RS)-alpha-(2-furyl)benzyl] alpha-monoamide] | ~700 fois celui du saccharose | 
6 | COC(=O)[C@H](Cc1ccccc1)NC(=O)[C@H](CC(=O)O)NC(=S)Nc1ccc(OC)nc1 [Exemple 6, N-(2-méthoxy-5-pyridylthiocarbamoyl)-L-aspartyl-L-phénylalanine méthyl ester] | ~1 400 fois celui du saccharose | 
7 | COC(=O)[C@H](Cc1ccccc1)NC(=O)[C@H](CC(=O)O)NC(=S)Nc1cnc(C#N)nc1 [Exemple 7, N-(2-cyano-5-pyrimidinylthiocarbamoyl)-L-aspartyl-L-phénylalanine méthyl ester] | ~50 000 fois celui du saccharose | 
8 | COC(=O)[C@H](Cc1ccccc1)NC(=O)[C@H](CC(=O)O)NC(=O)Nc1ccc2nonc2c1 [Exemple 8, N-(5-benzofurazanylcarbamoyl)-L-aspartyl-L-phénylalanine méthyl ester] | ~5 000 fois celui du saccharose | solubility at 1 h [2]: ~180 µg/mL (≈ 395 µM); solubilité, fois plus élevée que celle de l'analogue carbocyclique 4-cyanophényle [2]: ~9 fois
9 | COC(=O)[C@H](Cc1ccccc1)NC(=O)[C@H](CC(=O)O)NC(=O)Nc1ccc2c(c1)no[n+]2[O-] [Exemple 9, N-(1-oxyde-5-benzofurazanylcarbamoyl)-L-aspartyl-L-phénylalanine méthyl ester] | ~2 000 fois celui du saccharose | 
10 | COC(=O)[C@H](Cc1ccccc1)NC(=O)[C@H](CC(=O)O)NC(=O)Nc1ccc2nsnc2c1 [Exemple 10, N-(5-benzothiofurazanylcarbamoyl)-L-aspartyl-L-phénylalanine méthyl ester] | ~500 fois celui du saccharose | 
11 | COC(=O)[C@H](Cc1ccccc1)NC(=O)[C@H](CC(=O)O)NC(=O)Nc1ccc2c(c1)OCO2 [Exemple 11, N-(3,4-méthylènedioxyphénylcarbamoyl)-L-aspartyl-L-phénylalanine méthyl ester] | ~50 fois celui du saccharose | 
12 | COC(=O)[C@H](Cc1ccccc1)NC(=O)[C@H](CC(=O)O)NC(=O)Nc1ccc(C#N)cc1 [exemple 4 du brevet EP-B-0107597, reference compound] |  | solubility at 1 h [2]: ~20 µg/mL (≈ 45.6 µM)
